The values below are quoted from earlier work in patent US12350300B2, “Use of dopamine producing products to increase vaccine efficacy” (Iowa State University Research Foundation, Inc., priority 2021, dated 2025).

Structures are written as SMILES.

The EC50 is the concentration giving half of the maximal effect.

One data set deals with longitudinal muscle. The following applies: read-out: EC50, relaxation.
Another data set relates to mouse colitis. The settings on record: Herak-Perkovic 2001.
The next data set concerns circular muscle. The following applies: read-out: EC50, contractions.

In the case of `NCCc1ccc(O)c(O)c1` [dopamine], the concentration for a half-maximal effect (EC50) is 29 µM in the data set on longitudinal muscle and 6.3 µM with circular muscle. In addition, the “effect against the development of inflammation” value in the data set on mouse colitis is “protective effect”.
